Assay results from the CheMixHub viscosity set.
Several values for one entry are separate records, joined by “and”; a condition that tells them apart may be missing. Identical values can stand only once.

Assay: xn = mol fraction of the nth substance listed

CCCC(=O)[O-].OCC[NH2+]CCO + CC(=O)O.NCCO
viscosity [mPa·s], 101.3 kPa
Conditions	x2 = 0.1516	x2 = 0.2854	x2 = 0.4059	x2 = 0.5163	x2 = 0.6146	x2 = 0.7052	x2 = 0.7885	x2 = 0.8646	x2 = 0.9348
293.15 K	1991	2150	2309	2468	2628	2787	2946	3105	3264
298.15 K	1330	1434	1538	1642	1746	1850	1955	2059	2163
303.15 K	906.1	972.3	1039	1105	1171	1237	1303	1370	1436
308.15 K	631.9	675.2	718.4	761.7	804.9	848.2	891.4	934.7	978
313.15 K	450.1	479.1	508.1	537.1	566.1	595.1	624.1	653.1	682.1
318.15 K	327	347	366.9	386.9	406.8	426.8	446.7	466.7	486.6
323.15 K	242	256	270.1	284.1	298.1	312.2	326.2	340.2	354.3

COc1ccccc1 + CC(C)(C)O
viscosity [mPa·s], 100.33 kPa
Conditions	x1 = 0.1	x1 = 0.1999	x1 = 0.3002	x1 = 0.4001	x1 = 0.5	x1 = 0.6001	x1 = 0.6998	x1 = 0.8001	x1 = 0.9001
303.15 K	2.101	1.758	1.484	1.272	1.143	1.011	0.954	0.928	0.919
313.15 K	1.585	1.29	1.099	1.002	0.915	0.853	0.825	0.808	0.798
323.15 K	1.222	1.022	0.887	0.815	0.773	0.743	0.722	0.711	0.701

CC1COC(=O)O1 (stereo unspecified) + CC(C)=O
303.15 K, 101.3 kPa
Conditions	viscosity [mPa·s]
x1 = 0.088	0.3518
x1 = 0.1784	0.4187
x1 = 0.2713	0.5016
x1 = 0.3668	0.6038
x1 = 0.4647	0.7316
x1 = 0.5657	0.8959
x1 = 0.6697	1.104
x1 = 0.7768	1.371
x1 = 0.8864	1.71

c1ccc2ccccc2c1 + CC(C)=O
viscosity [mPa·s], 101 kPa
Conditions	298.15 K	303.15 K	308.15 K	313.15 K
x1 = 0.1688	0.487	0.464	0.4428	0.4207
x1 = 0.2356	0.5618	0.5296	0.5029	0.4781

C1CCOC1 + CC(C)CC(C)(C)C
viscosity [mPa·s], 101 kPa
Conditions	x1 = 0.1001	x1 = 0.2	x1 = 0.3	x1 = 0.4	x1 = 0.5	x1 = 0.6	x1 = 0.7	x1 = 0.8	x1 = 0.9
298.15 K	0.479	0.477	0.475	0.474	0.473	0.472	0.472	0.471	0.471
308.15 K	0.433	0.432	0.432	0.431	0.431	0.432	0.432	0.432	0.432

CC(C)=O + CC(C)CC(C)(C)C
298.15 K, 101 kPa
Conditions	viscosity [mPa·s]
x1 = 0.0643	0.456
x1 = 0.1001	0.448
x1 = 0.2004	0.428
x1 = 0.2297	0.422
x1 = 0.2934	0.417
x1 = 0.3408	0.404
x1 = 0.3994	0.395
x1 = 0.5006	0.378
x1 = 0.5566	0.367
x1 = 0.5927	0.36
x1 = 0.7032	0.341
x1 = 0.7941	0.327
x1 = 0.8898	0.314

COc1ccccc1 + CC(C)CO
viscosity [mPa·s], 101.33 kPa
Conditions	x1 = 0.1001	x1 = 0.2001	x1 = 0.2999	x1 = 0.4001	x1 = 0.5	x1 = 0.6001	x1 = 0.7	x1 = 0.8001	x1 = 0.9002
303.15 K	1.789	1.326	1.157	1.069	1.011	0.969	0.951	0.934	0.921
313.15 K	1.355	1.064	0.933	0.862	0.845	0.831	0.816	0.803	0.792
323.15 K	1.063	0.829	0.768	0.743	0.736	0.731	0.718	0.708	0.697

C1CCOC1 + CC(C)O
101 kPa
Conditions	viscosity
298.15 K, x1 = 0.05	1.706 mPa·s
298.15 K, x1 = 0.1	1.445 mPa·s
298.15 K, x1 = 0.15	1.248 mPa·s
298.15 K, x1 = 0.2001	1.113 mPa·s
298.15 K, x1 = 0.25	0.988 mPa·s
298.15 K, x1 = 0.3	0.896 mPa·s
298.15 K, x1 = 0.35	0.812 mPa·s
298.15 K, x1 = 0.4	0.752 mPa·s
298.15 K, x1 = 0.45	0.703 mPa·s
298.15 K, x1 = 0.5	0.659 mPa·s and 0.6917 mPa·s
298.15 K, x1 = 0.55	0.623 mPa·s
298.15 K, x1 = 0.6	0.594 mPa·s
298.15 K, x1 = 0.65	0.567 mPa·s
298.15 K, x1 = 0.7	0.545 mPa·s
298.15 K, x1 = 0.75	0.526 mPa·s
298.15 K, x1 = 0.8	0.511 mPa·s
298.15 K, x1 = 0.85	0.497 mPa·s
298.15 K, x1 = 0.9	0.488 mPa·s
298.15 K, x1 = 0.95	0.48 mPa·s
298.15 K, x2 = 0.1211	0.49 mPa·s
298.15 K, x2 = 0.2273	0.525 mPa·s
298.15 K, x2 = 0.3055	0.556 mPa·s
298.15 K, x2 = 0.3798	0.587 mPa·s
298.15 K, x2 = 0.4846	0.654 mPa·s
298.15 K, x2 = 0.5812	0.745 mPa·s
298.15 K, x2 = 0.6948	0.899 mPa·s
298.15 K, x2 = 0.7237	0.963 mPa·s
298.15 K, x2 = 0.8181	1.256 mPa·s
298.15 K, x2 = 0.9031	1.571 mPa·s
298.15 K, x2 = 0.955	1.803 mPa·s
303 K, x1 = 0.0983	1.07 mPa·s
303 K, x1 = 0.2085	0.86 mPa·s
303 K, x1 = 0.2911	0.71 mPa·s
303 K, x1 = 0.3728	0.58 mPa·s
303 K, x1 = 0.5014	0.56 mPa·s
303 K, x1 = 0.5976	0.54 mPa·s
303 K, x1 = 0.7483	0.48 mPa·s
303 K, x1 = 0.8001	0.47 mPa·s
303 K, x1 = 0.8939	0.45 mPa·s
308.15 K, x1 = 0.05	1.313 mPa·s
308.15 K, x1 = 0.1	1.142 mPa·s
308.15 K, x1 = 0.15	1.009 mPa·s
308.15 K, x1 = 0.2001	0.909 mPa·s
308.15 K, x1 = 0.25	0.824 mPa·s
308.15 K, x1 = 0.3	0.755 mPa·s
308.15 K, x1 = 0.35	0.697 mPa·s
308.15 K, x1 = 0.4	0.646 mPa·s
308.15 K, x1 = 0.45	0.606 mPa·s
308.15 K, x1 = 0.5	0.576 mPa·s
308.15 K, x1 = 0.55	0.549 mPa·s
308.15 K, x1 = 0.6	0.526 mPa·s
308.15 K, x1 = 0.65	0.507 mPa·s
308.15 K, x1 = 0.7	0.489 mPa·s
308.15 K, x1 = 0.75	0.474 mPa·s
308.15 K, x1 = 0.8	0.461 mPa·s
308.15 K, x1 = 0.85	0.452 mPa·s
308.15 K, x1 = 0.9	0.444 mPa·s
308.15 K, x1 = 0.95	0.44 mPa·s
313 K, x1 = 0.0983	0.86 mPa·s
313 K, x1 = 0.2085	0.7 mPa·s
313 K, x1 = 0.2911	0.61 mPa·s
313 K, x1 = 0.3728	0.54 mPa·s
313 K, x1 = 0.5014	0.48 mPa·s
313 K, x1 = 0.5976	0.46 mPa·s
313 K, x1 = 0.7483	0.45 mPa·s
313 K, x1 = 0.8001	0.43 mPa·s
313 K, x1 = 0.8939	0.43 mPa·s

CC(=O)Oc1ccccc1C(=O)O + CC(C)O
viscosity [mPa·s], 101 kPa
Conditions	x1 = 0.00057	x1 = 0.000763	x1 = 0.000955	x1 = 0.00115	x1 = 0.00134	x1 = 0.00153	x1 = 0.00191
293.15 K	2.382	2.382	2.383	2.384	2.385	2.386	2.389
298.15 K	2.045	2.045	2.046	2.046	2.047	2.048	2.049
303.15 K	1.763	1.764	1.764	1.765	1.766	1.767	1.768
308.15 K	1.524	1.524	1.525	1.525	1.525	1.526	1.526
310.15 K	1.437	1.438	1.438	1.438	1.439	1.439	1.44
313.15 K	1.392	1.392	1.393	1.393	1.394	1.394	1.395

CC(C)=O + CC(C)O
298.15 K, 101 kPa
Conditions	viscosity [mPa·s]
x2 = 0.152	0.347
x2 = 0.161	0.349
x2 = 0.292	0.389
x2 = 0.302	0.395
x2 = 0.452	0.486
x2 = 0.486	0.507
x2 = 0.488	0.513
x2 = 0.661	0.703
x2 = 0.812	1.071
x2 = 0.849	1.187

CC1COC(=O)O1 (stereo unspecified) + CC(C)O
viscosity [mPa·s], 101 kPa
Conditions	x1 = 0.0614	x1 = 0.1283	x1 = 0.2015	x1 = 0.2818	x1 = 0.3706	x1 = 0.469	x1 = 0.5787	x1 = 0.7019	x1 = 0.8412
298.15 K	1.84	1.74	1.68	1.64	1.64	1.65	1.7	1.8	2.04
303.15 K	1.6	1.53	1.46	1.44	1.45	1.48	1.54	1.65	1.85
308.15 K	1.44	1.37	1.31	1.29	1.29	1.32	1.39	1.49	1.68
